Target: T1, p53 Y220C (Homo sapiens, UniProt P04637, Y220C)
T1 construct: The recombinant protein was a truncation mutant containing only amino acids 94-312 of p53; made in house; host or cells: E. coli
Experiment: In vitro DNA binding activity assay (HTRF / TR-FRET): stabilization of p53 Y220C and increase of its DNA binding activity
Assay type: biochemical
Conditions: recombinant His-tagged p53 Y220C DNA binding domain (aa 94-312), biotin-labeled consensus DNA, incubated at 27° C. or 29° C. for 60 min
In short: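 Compounds from 4.5 mM DMSO stocks, 3-fold serial dilutions; room-temperature incubations of 15 and 20 min. SC150 = concentration raising DNA binding by 50% over no-compound control.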

T1 sequence (P04637 94-312, change not shown): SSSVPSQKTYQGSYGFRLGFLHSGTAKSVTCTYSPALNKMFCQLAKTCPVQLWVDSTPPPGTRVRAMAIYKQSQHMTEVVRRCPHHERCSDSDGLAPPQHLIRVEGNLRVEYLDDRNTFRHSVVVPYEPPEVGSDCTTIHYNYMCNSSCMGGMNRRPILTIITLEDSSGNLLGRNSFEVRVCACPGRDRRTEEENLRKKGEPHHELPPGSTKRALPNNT

SMILES	SC150 (concentration of the compound required to increase the DNA binding activity by 50%)
COc1cc(S(N)(=O)=O)ccc1NCC#Cc1cc2c(N[C@H]3CC[C@@H](N4CC5CC(C4)O5)CC3)cccc2n1CC(F)(F)F [Compound 401A, 3-methoxy-4-{[3-(4-{[(1S,4S)-4-{6-oxa-3-azabicyclo[3.1.1]heptan-3-yl}cyclohexyl]amino}-1-(2,2,2-trifluoroethyl)-1H-indol-2-yl)prop-2-yn-1-yl]amino}benzene-1-sulfonamide]	++ (++ = 0.05 μM ≤ SC150 < 0.1 μM)
COc1cc(C(=O)N2CC3(COC3)C2)ccc1NCC#Cc1cc2c(NC3CCN(C)CC3)cccc2n1CC(F)(F)F [Compound 502A, 2-{3-[(2-methoxy-4-{2-oxa-6-azaspiro[3.3]heptane-6-carbonyl}phenyl)amino]prop-1-yn-1-yl}-N-(1-methylpiperidin-4-yl)-1-(2,2,2-trifluoroethyl)-1H-indol-4-amine]	+ (+ = 0 μM ≤ SC150 < 0.05 μM)
COc1cc(S(C)(=O)=O)ccc1NCC#Cc1cc2c(NC3CCN(C[C@@H]4COC(C)(C)O4)CC3)cccc2n1CC(F)(F)F [Compound 566A, N-(1-{[(4R)-2,2-dimethyl-1,3-dioxolan-4-yl]methyl}piperidin-4-yl)-2-{3-[(4-methanesulfonyl-2-methoxyphenyl)amino]prop-1-yn-1-yl}-1-(2,2,2-trifluoroethyl)-1H-indol-4-amine]	+ (+ = 0 μM ≤ SC150 < 0.05 μM)
COc1cc(S(C)(=O)=O)ccc1NCC#Cc1cc2c(N[C@@H]3CCN(CCO)C[C@@H]3F)cccc2n1CC(F)(F)F [Compound 853A, 2-[(3S,4R)-3-fluoro-4-[(2-{3-[(4-methanesulfonyl-2-methoxyphenyl)amino]prop-1-yn-1-yl}-1-(2,2,2-trifluoroethyl)-1H-indol-4-yl)amino]piperidin-1-yl]ethan-1-ol]	+ (+ = 0 μM ≤ SC150 < 0.05 μM)
COc1cc(S(N)(=O)=O)ccc1NCC#Cc1cc2c(NC3CC4(COC4)C3)cccc2n1CC(F)(F)F [Compound 18A]	+ (+ = 0 μM ≤ SC150 < 0.05 μM)
COc1cc(S(=O)(=O)N(CCO)CCO)ccc1NCC#Cc1cc2c(NC3CCN(CC(C)O)CC3)cccc2n1CC(F)(F)F (stereo not drawn) [Compound 595A, N,N-bis(2-hydroxyethyl)-4-{[3-(4-{[1-(2-hydroxypropyl)piperidin-4-yl]amino}-1-(2,2,2-trifluoroethyl)-1H-indol-2-yl)prop-2-yn-1-yl]amino}-3-methoxybenzene-1-sulfonamide]	+ (+ = 0 μM ≤ SC150 < 0.05 μM)
N#CCOc1cc(S(N)(=O)=O)ccc1NCC#Cc1cc2c(N[C@H]3CC[C@H](N4CCOCC4)CC3)cccc2n1CC(F)(F)F [Compound 342A, 3-(cyanomethoxy)-4-{[3-(4-{[(1R,4R)-4-(morpholin-4-yl)cyclohexyl]amino}-1-(2,2,2-trifluoroethyl)-1H-indol-2-yl)prop-2-yn-1-yl]amino}benzene-1-sulfonamide]	+ (+ = 0 μM ≤ SC150 < 0.05 μM)
COc1cc(S(N)(=O)=O)ccc1NCC#Cc1cc2c(N[C@H]3CC[C@H](N4CC(S(C)(=O)=O)C4)CC3)cccc2n1CC(F)(F)F [Compound 190A, 3-methoxy-4-{[3-(4-{[(1R,4R)-4-(3-methanesulfonyl-azetidin-1-yl)cyclo-hexyl]amino}-1-(2,2,2-trifluoroethyl)-1H-indol-2-yl)prop-2-yn-1-yl]amino}benzene-1-sulfonamide]	+ (+ = 0 μM ≤ SC150 < 0.05 μM)
COc1cc(C(=O)O)ccc1NCC#Cc1cc2c(N[C@@H]3CCN(CC(N)=O)C[C@@H]3F)cccc2n1CC(F)(F)F [Compound 926A]	+ (+ = 0 μM ≤ SC150 < 0.05 μM)
COc1cc(S(C)(=O)=O)ccc1NCC#Cc1cc2c(N[C@@H]3CCCNC3)cccc2n1CC(F)(F)F [Compound 463A, 2-{3-[(4-methanesulfonyl-2-methoxyphenyl)amino]prop-1-yn-1-yl}-N-[(3R)-piperidin-3-yl]-1-(2,2,2-trifluoroethyl)-1H-indol-4-amine]	+ (+ = 0 μM ≤ SC150 < 0.05 μM)
COCC(O)CN1CCC(Nc2cccc3c2cc(C#CCNc2ccc(S(C)(=O)=O)cc2OC)n3CC#N)CC1 (stereo not drawn) [Compound 699A, 2-(4-{[1-(2-hydroxy-3-methoxypropyl)piperidin-4-yl]amino}-2-{3-[(4-methanesulfonyl-2-methoxyphenyl)amino]prop-1-yn-1-yl}-1H-indol-1-yl)acetonitrile]	+ (+ = 0 μM ≤ SC150 < 0.05 μM)
CN1CC[C@@H](Nc2cccc3c2cc(C#CCNC(=O)c2ccn(C)c2)n3CC(F)(F)F)[C@@H](F)C1 [Compound 953A, N-[3-(4-{[(3S,4R)-3-fluoro-1-methylpiperidin-4-yl]amino}-1-(2,2,2-trifluoroethyl)-1H-indol-2-yl)prop-2-yn-1-yl]-1-methyl-1H-pyrrole-3-carboxamide]	+ (+ = 0 μM ≤ SC150 < 0.05 μM)
COc1cc(S(=O)(=O)N2CCOCC2)ccc1NCC#Cc1cc2c(NC3CCN(C)CC3)cccc2n1CC(F)(F)F [Compound 480A, 2-(3-{[2-methoxy-4-(morpholine-4-sulfonyl)phenyl]amino}prop-1-yn-1-yl)-N-(1-methylpiperidin-4-yl)-1-(2,2,2-trifluoroethyl)-1H-indol-4-amine]	+ (+ = 0 μM ≤ SC150 < 0.05 μM)
COc1cc(S(N)(=O)=O)ccc1NCC#Cc1cc2c(NC(CCO)CCO)cccc2n1CC(F)(F)F [Compound 4A, 4-[(3-{4-[(1,5-dihydroxypentan-3-yl)amino]-1-(2,2,2-trifluoroethyl)-1H-indol-2-yl}prop-2-yn-1-yl)amino]-3-methoxybenzene-1-sulfonamide]	+ (+ = 0 μM ≤ SC150 < 0.05 μM)
COCC(O)CN1CCC(Nc2cccc3c2cc(C#CCNc2ccc(S(C)(=O)=O)cc2OC(F)(F)F)n3CC(F)(F)F)CC1 (stereo not drawn) [Compound 710A, 1-(4-{[2-(3-{[4-methanesulfonyl-2-(trifluoromethoxy)phenyl]amino}prop-1-yn-1-yl)-1-(2,2,2-trifluoroethyl)-1H-indol-4-yl]amino}piperidin-1-yl)-3-methoxypropan-2-ol]	+ (+ = 0 μM ≤ SC150 < 0.05 μM)
COc1cc(S(=O)(=O)N(C)C)ccc1NCC#Cc1cc2c(NC3CCNCC3)cccc2n1CC(F)(F)F [Compound 460A]	+ (+ = 0 μM ≤ SC150 < 0.05 μM)
COc1cc(S(N)(=O)=O)ccc1NCC#Cc1cc2c(NC3CCN(CC(C)OC(C)=O)CC3)cccc2n1CC(F)(F)F (stereo not drawn) [Compound 599A, 1-{4-[(2-{3-[(2-methoxy-4-sulfamoylphenyl)amino]prop-1-yn-1-yl}-1-(2,2,2-trifluoroethyl)-1H-indol-4-yl)amino]piperidin-1-yl}propan-2-yl acetate]	+ (+ = 0 μM ≤ SC150 < 0.05 μM)
COc1cc(C(N)=O)ccc1NCC#Cc1cc2c(N[C@H]3CC[C@@H](N(C)C)CC3)cccc2n1CC(F)(F)F [Compound 613A, 3-methoxy-4-{[3-(4-{[(1S,4S)-4-(dimethylamino)cyclohexyl]amino}-1-(2,2,2-trifluoroethyl)-1H-indol-2-yl)prop-2-yn-1-yl]amino}benzamide]	+ (+ = 0 μM ≤ SC150 < 0.05 μM)
